Results on 14 compounds are retold here after patent US20080161315A1, “INDOLES” (priority 2006, published 2008).

Molecules are shown by their SMILES. Where a name gives a salt, the structure may show the parent alone.

T1 sequence (P37288 whole entry): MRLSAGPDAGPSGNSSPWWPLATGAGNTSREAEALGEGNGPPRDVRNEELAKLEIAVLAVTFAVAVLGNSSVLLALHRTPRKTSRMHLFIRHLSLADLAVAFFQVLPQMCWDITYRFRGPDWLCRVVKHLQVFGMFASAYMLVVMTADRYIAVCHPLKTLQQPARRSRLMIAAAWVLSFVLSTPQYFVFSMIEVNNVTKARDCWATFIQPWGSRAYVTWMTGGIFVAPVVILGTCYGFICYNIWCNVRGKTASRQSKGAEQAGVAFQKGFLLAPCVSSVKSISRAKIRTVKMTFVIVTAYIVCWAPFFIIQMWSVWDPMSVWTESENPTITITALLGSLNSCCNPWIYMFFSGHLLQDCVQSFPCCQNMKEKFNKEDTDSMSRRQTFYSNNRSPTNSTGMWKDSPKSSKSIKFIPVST

The test concerns the target T1, human V1a receptor (Homo sapiens, UniProt P37288).
T1 construct: expressed in transfected cells; host or cells: HEK293 cells, transiently transfected; membrane preparation
The test can be described thus: human V1a receptor binding studies (3H-Vasopressin, SPA beads). To be noted: membranes of HEK293 cells transiently transfected with human V1a receptor, Ki calculated by Cheng-Prussoff equation, read-out: pKi hV1a (converted). The procedure:
The human V1a receptor was cloned by RT-PCR from total human liver RNA. The coding sequence was subcloned in an expression vector after sequencing to confirm the identity of the amplified sequence. […] Cell membranes were prepared from HEK293 cells transiently transfected with the expression vector and grown in 20 liter fermenters with the following protocol.
50 g of cells were resuspended in 30 ml freshly prepared ice cold Lysis buffer (50 mM HEPES, 1 mM EDTA, 10 mM MgCl2 adjusted to pH=7.4+complete cocktail of protease inhibitor (Roche Diagnostics)); homogenized with Polytron for 1 min; and sonicated on ice for 2×2 minutes at 80% intensity (Vibracell sonicator). The preparation was centrifuged 20 min at 500 g at 4° C., the pellet was discarded and the supernatant centrifuged 1 hour at 43,000 g at 4° C. (19,000 rpm). The pellet was resuspended in 12.5 ml Lysis buffer+12.5 ml Sucrose 20% and homogenized using a Polytron for 1-2 min. The protein concentration was determined by the Bradford method and aliquots were stored at −80° C. until use. For binding studies 60 mg Yttrium silicate SPA beads (Amersham) were mixed with an aliquot of membrane in binding buffer (50 mM Tris, 120 mM NaCl, 5 mM KCl, 2 mM CaCl2, 10 mM MgCl2) for 15 minutes with mixing. 50 ul of bead/membrane mixture was then added to each well of a 96 well plate, followed by 50 ul of 4 nM 3H-Vasopressin (American Radiolabeled Chemicals). For total binding measurement 100 ul of binding buffer were added to the respective wells, for non-specific binding 100 ul of 8.4 mM cold vasopressin and for compound testing 100 ul of a serial dilution of each compound in 2% DMSO. The plate was incubated Ih at room temperature, centrifuged 1 min at 1000 g and counted on a Packard Top-Count. Non-specific binding counts were subtracted from each well, and data was normalized to the maximum specific binding set at 100%. To calculate an IC 50 the curve was fitted using a non-linear regression model (XLfit), and the Ki was calculated using the Cheng-Prussoff equation.
Take `CCN(CC)C(=O)Cn1cc(C(=O)N2CCC(N3C(=O)Cc4ccccc43)CC2)c2ccc(Cl)cc21` [Example 5, 2-{6-Chloro-3-[4-(2-oxo-2,3-dihydro-indol-1-yl)-piperidine-1-carbonyl]-indol-1-yl}-N,N-diethyl-acetamide]: the Ki is 11.7 nM.

Regarding `CNC(=O)Cn1cc(C(=O)N2CCC(n3c(=O)oc4ccccc43)CC2)c2ccc(Cl)cc21` [Example 10, 2-{6-Chloro-3-[4-(2-oxo-benzooxazol-3-yl)-piperidine-1-carbonyl]-indol-1-yl}-N-methyl-acetamide], the Ki is 6.76 nM.

For the compound `Cc1[nH]c2cc(Cl)ccc2c1C(=O)N1CCC(N2C(=O)Cc3ccccc32)CC1` [Example 8, 1-[1-(6-Chloro-2-methyl-1H-indole-3-carbonyl)-piperidin-4-yl]-1,3-dihydro-indol-2-one], the Ki is 12.6 nM.

As for `O=C(c1c[nH]c2cc(Cl)ccc12)N1CCC(N2C(=O)Cc3ccccc32)CC1` [Example 1, 1-[1-(6-Chloro-1H-indole-3-carbonyl)-piperidin-4-yl]-1,3-dihydro-indol-2-one], the Ki is 8.91 nM.

`CC(=O)NCCn1cc(C(=O)N2CCC(N3C(=O)Cc4ccccc43)CC2)c2ccc(Cl)cc21` [Example 7, N-[2-(6-Chloro-3-{[4-(2-oxo-2,3-dihydro-1H-indol-1-yl)piperidin-1-yl]carbonyl}-1H-indol-1-yl)ethyl]acetamide]: the Ki was 11.7 nM.

For `CNCCn1cc(C(=O)N2CCC(N3C(=O)Cc4ccccc43)CC2)c2ccc(Cl)cc21` [Example 14, 1-{1-[6-Chloro-1-(2-methylamino-ethyl)-1H-indole-3-carbonyl]-piperidin-4-yl}-1,3-dihydro-indol-2-one hydrochloride], the Ki was 6.61 nM.

On to `CN(C)C(=O)Cn1cc(C(=O)N2CCC(n3nnc4ccccc43)CC2)c2ccc(Cl)cc21` [Example 13, 2-(3-{[4-(1H-Benzotriazol-1-yl)piperidin-1-yl]carbonyl}-6-chloro-1H-indol-1-yl)-N,N-dimethylacetamide], for which the Ki was 14.1 nM.

Consider `CN(C)CCn1cc(C(=O)N2CCC(N3C(=O)Cc4ccccc43)CC2)c2ccc(Cl)cc21` [Example 15, 1-{1-[6-Chloro-1-(2-dimethylamino-ethyl)-1H-indole-3-carbonyl]-piperidin-4-yl}-1,3-dihydro-indol-2-one], for which the Ki was 2.09 nM.

Regarding `CN(C)CCn1cc(C(=O)N2CCC(n3nnc4ccccc43)CC2)c2ccc(Cl)cc21` [Example 17, (4-Benzotriazol-1-yl-piperidin-1-yl)-[6-chloro-1-(2-dimethylamino-ethyl)-1H-indol-3-yl]-methanone], the Ki is 19.5 nM.

As to `CNC(=O)Cn1cc(C(=O)N2CCC(N3C(=O)Cc4ccccc43)CC2)c2ccc(Cl)cc21` [Example 3, 2-{6-Chloro-3-[4-(2-oxo-2,3-dihydro-indol-1-yl)-piperidine-1-carbonyl]-indol-1-yl}-N-methyl-acetamide], the Ki was 1.82 nM.

`CN1CCn2c(c(C(=O)N3CCC(n4nnc5ccccc54)CC3)c3ccc(Cl)cc32)C1` [Example 18, (4-Benzotriazol-1-yl-piperidin-1-yl)-(7-chloro-2-methyl-1,2,3,4-tetrahydro-pyrazino[1,2-a]indol-10-yl)-methanone]: the Ki is 20.9 nM.

`CS(=O)(=O)NCCn1cc(C(=O)N2CCC(N3C(=O)Cc4ccccc43)CC2)c2ccc(Cl)cc21` [Example 6, N-[2-(6-Chloro-3-{[4-(2-oxo-2,3-dihydro-1H-indol-1-yl)piperidin-1-yl]carbonyl}-1H-indol-1-yl)ethyl]methanesulfonamide]: the Ki was 3.16 nM.

For the compound `O=C(c1cn(Cc2cc(F)cc(F)c2)c2cc(Cl)ccc12)N1CCC(N2C(=O)Cc3ccccc32)CC1` [Example 2, 1-{1-[6-Chloro-1-(3,5-difluoro-benzyl)-1H-indole-3-carbonyl]-piperidin-4-yl}-1,3-dihydro-indol-2-one], the Ki was 2.57 nM.

Regarding `CN(C)C(=O)Cn1cc(C(=O)N2CCC(N3C(=O)Cc4ccccc43)CC2)c2ccc(Cl)cc21` [Example 4, 2-(6-Chloro-3-{[4-(2-oxo-2,3-dihydro-1H-indol-1-yl)piperidin-1-yl]carbonyl}-1H-indol-1-yl)-N,N-dimethylacetamide], the Ki is 1.29 nM.
